The values that follow come from patent publication US5354862A, “Preparation and the use of halopropargylated cyclic quaternary ammonium compounds as antimicrobial agents” (Rohm and Haas Company, priority 1993, dated 1994).

SMILES strings stand for the structures. Read-outs that look alike come from different tables or passages of the source.

Holding throughout (assay): Broth two-fold serial dilution MIC test
One test has as its system Staphylococcus aureus. Type of test: cell-based, Staphylococcus aureus (ATCC 6538). The settings on record: Saur. From the text:
(§1) A minimum inhibitory concentration (MIC) value is obtained using a broth, two-fold serial dilution test performed as follows: A stock solution or dispersion of the test compound, typically at a concentration of 1%, is made in a 5:3:2 solvent solution of acetone. methanol, and water. A volume of the stock solution is dispensed into culture media to give an initial starting test concentration of 500 ppm compound.
(§2) When the test is ready to be done, each vessel in the dilution series, except the first vessel, contains an equal volume of compound free broth. The first vessel contains twice the volume of broth with the starting concentration of test compound. One half of the broth from the first vessel is transferred to the second vessel- After being mixed, one half the resulting volume is removed from the second vessel and transferred to the third vessel. The entire cycle is repeated sufficiently to give a series of concentrations amounting to 500, 250, 125, 63, 31, 16, 8, and 4, 2, 1, 0.5, 0.25 ppm respectively.
(§3) Each vessel is then inoculated with a cell suspension of the appropriate test organism. Bacteria are grown in broth, fungi on agar slants for a time and at a temperature appropriate to the species being tested, and algae are a mixture of green algae and blue-green bacteria grown in a nutrient media. At the end of the growth period, in the case of bacteria, the broth is vortexed to disperse the cells.
(§4) In the case of fungi, the spores are harvested by pipetting water onto the slant and dislodging the spores with a sterile loop. The cell/spore suspension is standardized by controlling incubation time, temperature, and the volume of the diluent. The suspension is then used to inoculate the vessels containing the broth compound.
(§5) The vessels are then incubated at the appropriate temperature. After the incubation, the vessels are examined for growth/no growth. The minimum inhibitory concentration (MIC) is defined as the lowest concentration of compound that results in complete inhibition of growth of the test organism.
2. Staphylococcus aureus

Another test has as its system Pseudomonas aeruginosa. Type of test: cell-based, Pseudomonas aeruginosa (ATCC 15442). The settings on record: Psae.
From the text: as §1, §2, §3, §4, §5
1. Pseudomonas aeruginosa

The test system of the next test is Aspergillus niger. The format is cell-based, Aspergillus niger (ATCC 6275). The settings on record: Anig, TSB media.
From the text: as §1, §2, §3, §4, §5
4. Aspergillus niger 6275 Anig

The subject of a further test is Escherichia coli. The format is cell-based, Escherichia coli (ATCC 11229). The settings on record: Ecol.
From the text: as §1, §2, §3, §4, §5

Setting [1] is: Staphylococcus aureus, Table 2, M9G media, read-out: MIC.
Where [2] appears, read: Staphylococcus aureus, Table 2, TSB media, read-out: MIC.
Setting [3] is: Pseudomonas aeruginosa, Table 2, M9G media, read-out: MIC.
The mark [4] stands for this setting: Pseudomonas aeruginosa, Table 2, TSB media, read-out: MIC.
Setting [5] is: Aspergillus niger, Table 2, read-out: MIC.
[6] abbreviates: Escherichia coli, Table 2, TSB media, read-out: MIC.
Where [7] appears, read: Escherichia coli, Table 2, M9G media, read-out: MIC.

For the molecule `CCCCCCCCCCCC[N+]1(CC#CI)CCCC1` [Compound 37, 1-dodecyl-1-(3-iodopropargyl)-pyrrolidinium methanesulfonate], the MIC against Staphylococcus aureus (Table 2, M9G media) is recorded as 0.5 ppm; against Staphylococcus aureus (Table 2, TSB media), 0.5 ppm; against Pseudomonas aeruginosa (Table 2, M9G media), 63 ppm; against Pseudomonas aeruginosa (Table 2, TSB media) it was 125 ppm; in the test with Aspergillus niger (Table 2), 0.25 ppm; against Escherichia coli (Table 2, M9G media) it was 2 ppm. Further, in the test with Escherichia coli (Table 2, TSB media), the MIC is 16 ppm.

Turning to `CCCCCCCCCCCCCCCC[N+]1(CC#CI)CC(C)OC(C)C1` (stereo not drawn) [Compound 46, 4-hexadecyl-4-(3-iodopropargyl)-2,6-dimethylmorpholinium 4-methylbenzenesulfonate], the MIC in the test with Staphylococcus aureus (setting [1]) was less than 0.25 µg/mL; in the test with Staphylococcus aureus (setting [2]), less than 0.25 µg/mL; in the test with Pseudomonas aeruginosa (setting [3]), 16 µg/mL; in the test on Pseudomonas aeruginosa (setting [4]) it was 16 µg/mL; in the test with Aspergillus niger (Table 2), 2 ppm; in the test on Escherichia coli (Table 2, M9G media), 8 ppm. In the test on Escherichia coli (Table 2, TSB media), this molecule returned an MIC of 8 ppm.

With `OCCCCCCCCCCCC[N+]1(CC#CI)CCCCCC1` [Compound 27, 1-(12-hydroxydodecyl)-1-(3-iodopropargyl)-hexamethyleneiminium 4-methylbenzenesulfonate], the MIC in the test with Staphylococcus aureus (setting [1]) is 16 µg/mL; in the test on Staphylococcus aureus (setting [2]), 32 µg/mL; in the test on Pseudomonas aeruginosa (setting [3]) it was more than 250 µg/mL; with Pseudomonas aeruginosa (setting [4]) it was more than 250 µg/mL; with Aspergillus niger (setting [5]), 32 µg/mL; in the test on Escherichia coli (setting [6]), 250 µg/mL.

Consider `CCCCCCOC(=O)CCCCC[N+]1(CC#CI)CCOCC1` [Compound 83, 4-[5-(hexyloxycarbonyl)]pentyl-4-(3-iodopropargyl)-morpholinium methanesulfonate], for which the MIC against Staphylococcus aureus (Table 2, M9G media) is reported as 4 ppm; in the test on Staphylococcus aureus (Table 2, TSB media), 8 ppm; in the test on Pseudomonas aeruginosa (Table 2, M9G media) it was more than 500 ppm; against Pseudomonas aeruginosa (Table 2, TSB media), more than 500 ppm; against Aspergillus niger (Table 2), 125 ppm; in the test on Escherichia coli (Table 2, M9G media), 16 ppm. This molecule showed an MIC in the test with Escherichia coli (Table 2, TSB media) of 32 ppm.

Consider `CCCCCCCCCCCCCC[N+]1(CC#CI)CCCCC1C` (stereo not drawn) [Compound 55, 1-(tetradecyl)-1-(3-iodopropargyl)-2-methylpiperidinium methanesulfonate], for which the MIC in the test with Staphylococcus aureus (Table 2, M9G media) was found to be 1 ppm; against Staphylococcus aureus (Table 2, TSB media), 8 ppm; against Pseudomonas aeruginosa (Table 2, M9G media), 125 ppm; in the test on Pseudomonas aeruginosa (Table 2, TSB media) it was 125 ppm; with Aspergillus niger (Table 2), 1 ppm; against Escherichia coli (Table 2, M9G media), 4 ppm. This molecule also registered an MIC in the test on Escherichia coli (Table 2, TSB media) of 16 ppm.

Take `CCCCCCOC(=O)CCCCC[N+]1(CC#CI)CCCC1` [Compound 82, 1-[5-(hexyloxycarbonyl)]pentyl-1-(3-iodopropargyl)-pyrrolidinium 4-methylbenzenesulfonate]: the MIC in the test with Staphylococcus aureus (setting [1]) was 2 µg/mL; in the test on Staphylococcus aureus (setting [2]), 8 µg/mL; in the test on Pseudomonas aeruginosa (setting [3]), more than 500 µg/mL; in the test with Pseudomonas aeruginosa (setting [4]) it was more than 500 µg/mL; against Aspergillus niger (Table 2), 125 ppm; in the test with Escherichia coli (setting [7]) it was 32 µg/mL. Besides, in the test with Escherichia coli (setting [6]), the MIC was determined as 64 µg/mL.

Turning to `OCCCCCCCCCCCC[N+]1(CC#CI)CCCC1` [Compound 2, 1-(12-hydroxydodecyl)-l-(3-iodopropargyl)-pyrrolidinium 4-methylbenzenesulfonate], the MIC with Staphylococcus aureus (setting [1]) is 32 µg/mL; in the test with Staphylococcus aureus (setting [2]) it was 32 µg/mL; with Pseudomonas aeruginosa (setting [3]) it was more than 250 µg/mL; in the test on Pseudomonas aeruginosa (setting [4]), more than 250 µg/mL; in the test with Aspergillus niger (setting [5]) it was 32 µg/mL; in the test with Escherichia coli (setting [6]) it was 250 µg/mL.

For the molecule `OCC[N+]1(CC#CI)CCCCC1` [Compound 18, 1-(2-hydroxyethyl)-1-(3-iodopropargyl)-piperidinium 4-methylbenzenesulfonate], the MIC in the test with Staphylococcus aureus (setting [1]) is 16 µg/mL; with Staphylococcus aureus (setting [2]), 32 µg/mL; in the test with Pseudomonas aeruginosa (setting [3]), 250 µg/mL; in the test on Pseudomonas aeruginosa (setting [4]), 125 µg/mL; in the test on Aspergillus niger (setting [5]), 250 µg/mL; with Escherichia coli (setting [6]), 250 µg/mL.

As to `OCCCCCCCCC[N+]1(CC#CI)CCCCC1` [Compound 21, 1-(9-hydroxynonyl)-1-(3-iodopropargyl)-piperidinium 4-methylbenzenesulfonate], the MIC was more than 250 µg/mL in the test on Staphylococcus aureus (setting [1]); more than 250 µg/mL with Staphylococcus aureus (setting [2]); more than 250 µg/mL in the test with Pseudomonas aeruginosa (setting [3]); more than 250 µg/mL with Pseudomonas aeruginosa (setting [4]); 63 µg/mL with Aspergillus niger (setting [5]); more than 250 µg/mL in the test with Escherichia coli (setting [6]).

`CCCCCCCCCCCCCC[N+]1(CC#CI)CCOCC1` [Compound 86, 4-tetradecyl-4-(3-iodopropargyl)-morpholinium n-butylsulfonate]: the MIC with Staphylococcus aureus (Table 2, M9G media) turned out to be 0.5 ppm; with Staphylococcus aureus (Table 2, TSB media) it was 1 ppm; in the test on Pseudomonas aeruginosa (Table 2, M9G media), 8 ppm; in the test on Pseudomonas aeruginosa (Table 2, TSB media) it was 32 ppm; with Aspergillus niger (Table 2), 8 ppm; against Escherichia coli (Table 2, M9G media), 2 ppm. In the test with Escherichia coli (Table 2, TSB media), this molecule gave an MIC of 8 ppm.

Regarding `CCCCCCCCCCCCCC[N+]1(CC#CI)CCCC1` [Compound 6, 1-Tetradecyl-1-(3-Iodopropargyl)-Pyrrolidinium 4-Methylbenzenesulfonate], the MIC with Staphylococcus aureus (setting [1]) came out at 0.5 µg/mL; in the test with Staphylococcus aureus (setting [2]), 0.5 µg/mL; with Staphylococcus aureus (Staphylococcus aureus, Table 3 comparison, M9G media, read-out: MIC), 0.5 µg/mL; in the test with Staphylococcus aureus (Staphylococcus aureus, Table 3 comparison, TSB media, read-out: MIC), 0.5 µg/mL; in the test with Pseudomonas aeruginosa (Pseudomonas aeruginosa, Table 3 comparison, M9G media, read-out: MIC), 4 µg/mL; in the test on Pseudomonas aeruginosa (Pseudomonas aeruginosa, Table 3 comparison, TSB media, read-out: MIC) it was 4 µg/mL. Moreover, the MIC with Pseudomonas aeruginosa (Table 2, M9G media) was 4 ppm; against Pseudomonas aeruginosa (Table 2, TSB media), 4 ppm; in the test on Aspergillus niger (Aspergillus niger, Table 3 comparison, read-out: MIC), less than 0.25 µg/mL; against Aspergillus niger (Table 2), less than 0.25 ppm; against Escherichia coli (Table 2, M9G media), 4 ppm; against Escherichia coli (Table 2, TSB media), 4 ppm. The MIC against Escherichia coli (Table 3 comparison, M9G media) was determined as 4 ppm; in the test with Escherichia coli (Table 3 comparison, TSB media), 4 ppm.

Turning to `CC[N+]1(CC#CI)CCOCC1` [Compound 94, 4-ethyl-4-(3-iodopropargyl)-morpholinium methanesulfonate], the MIC was 500 µg/mL in the test with Staphylococcus aureus (setting [1]); more than 500 µg/mL in the test on Staphylococcus aureus (setting [2]); more than 500 µg/mL in the test on Pseudomonas aeruginosa (setting [3]); more than 500 µg/mL in the test on Pseudomonas aeruginosa (setting [4]); more than 500 µg/mL in the test with Aspergillus niger (setting [5]); 125 µg/mL with Escherichia coli (setting [7]). Besides, the MIC in the test on Escherichia coli (setting [6]) was 125 µg/mL.

`C[N+]1(CC#CI)CCOCC1` [Compound 29, 4-methyl-4-(3-iodopropargl)-morpholinium 4-methylbenzenesulfonate]: the MIC with Staphylococcus aureus (setting [1]) was 500 µg/mL; with Staphylococcus aureus (setting [2]) it was 500 µg/mL; with Pseudomonas aeruginosa (setting [3]), 500 µg/mL; with Pseudomonas aeruginosa (setting [4]), 500 µg/mL; with Aspergillus niger (setting [5]), 500 µg/mL; in the test on Escherichia coli (setting [7]) it was 250 µg/mL. In the test on Escherichia coli (setting [6]), the MIC amounted to 125 µg/mL.

`CCCCCCCCCCCCCC[N+]1(CC#CI)CCCCCC1` [Compound 45, 1-tetradecyl-1-(3-iodopropargyl)-hexamethyleneiminium 4-methylbenzenesulfonate]: the MIC in the test on Staphylococcus aureus (setting [1]) was less than 0.25 µg/mL; in the test on Staphylococcus aureus (setting [2]), less than 0.25 µg/mL; in the test with Pseudomonas aeruginosa (setting [3]) it was 4 µg/mL; in the test with Pseudomonas aeruginosa (setting [4]) it was 4 µg/mL; with Aspergillus niger (setting [5]), 1 µg/mL; in the test with Escherichia coli (setting [7]), less than 0.25 µg/mL. In addition, the MIC in the test with Escherichia coli (setting [6]) was less than 0.25 µg/mL.

As to `CCCCCCCCCCOC(=O)CC[N+]1(CC#CI)CCCC1` [Compound 98, l-[2-(decyloxycarbonyl)]ethyl-1-(3-iodopropargyl)-pyrrolidinium methanesulfonte], the MIC was found to be 8 ppm with Staphylococcus aureus (Table 2, M9G media); 32 ppm against Staphylococcus aureus (Table 2, TSB media); 500 ppm against Pseudomonas aeruginosa (Table 2, M9G media); 500 ppm against Pseudomonas aeruginosa (Table 2, TSB media); 16 ppm against Aspergillus niger (Table 2); 16 ppm against Escherichia coli (Table 2, M9G media). This molecule had an MIC in the test on Escherichia coli (Table 2, TSB media) of 32 ppm.

With `CCOC(=O)CC[N+]1(CC#CI)CCCCC1` [Compound 22, 1-(2-ethoxycarbonylethyl)-1-(3-iodopropargyl)-piperidinium 4-methylbenzenesulfonate], the MIC was more than 250 µg/mL with Staphylococcus aureus (setting [1]); more than 250 µg/mL in the test with Staphylococcus aureus (setting [2]); more than 250 µg/mL in the test with Pseudomonas aeruginosa (setting [3]); more than 250 µg/mL in the test with Pseudomonas aeruginosa (setting [4]); 16 µg/mL in the test with Aspergillus niger (setting [5]); more than 250 µg/mL in the test on Escherichia coli (setting [6]).

Take `OCCCCCCC[N+]1(CC#CI)CCCCC1` [Compound 24, 1-(7-hydroxyheptyl)-1-(3-iodopropargyl)-piperidinium-4methylbenzenesulfonate]: the MIC with Staphylococcus aureus (setting [1]) is 63 µg/mL; in the test with Staphylococcus aureus (setting [2]) it was 500 µg/mL; in the test on Pseudomonas aeruginosa (setting [3]) it was more than 500 µg/mL; in the test on Pseudomonas aeruginosa (setting [4]) it was more than 500 µg/mL; in the test on Aspergillus niger (setting [5]), more than 500 µg/mL; in the test on Escherichia coli (setting [6]) it was more than 500 µg/mL.
